Literature values as cited in patent publication US20130244874A1, “Waterless Composition Comprising Pesticide and Copolymers with Sulfonic Acid Groups” (BASF SE, priority 2010, published 2013).
In brackets after ≈: the same amount, converted by molar mass.

Compound | miscibility with water (solvent) | further results
C[S+](C)[O-] [Solvent E, DMSO] | infinitely miscible with water | 
CC(C)CCCCCCOC(=O)C1CCCCC1C(=O)OCCCCCCC(C)C (stereo not shown) [Solvent C, Diisononyl 1,2-cyclohexanedicarboxylate] |  | water-soluble (solvent, temperature not given): < 0.02 mg/L
O=C1CCCO1 [Solvent G, gamma-butyrolactone] | infinitely miscible with water | 
Cn1cc(C(=O)Nc2ccccc2-c2cc(F)c(F)c(F)c2)c(C(F)F)n1 [Fluxapyroxad, reference compound] |  | solubility in water (20° C.): 3.8 µg/mL (≈ 9.97 µM)
